Test results from patent US10807992B2, “Single enantiomer antiparasitic compounds” (priority 2017, dated 2020).
Where two headings read alike, the source gives them in different places.

Assays:
Ctenocephalides felis = assay: In vitro ingestion activity against fleas (artificial feeding, bovine blood); details: for mortality at 0.003 ppm: Trial 3, dose 0.003 ppm; for mortality at 0.012 ppm: Trial 3, dose 0.012 ppm; for mortality at 0.049 ppm: Trial 3, dose 0.049 ppm; for mortality at 0.2 ppm: Trial 3, dose 0.20 ppm; for mortality at 0.78 ppm: Trial 3, dose 0.78 ppm; for mortality at 3.125 ppm: Trial 3, dose 3.125 ppm; for mortality at 12.5 ppm: Trial 3, dose 12.5 ppm; for mortality at 50 ppm: Trial 3, dose 50 ppm
Procedure: Ctenocephalides felis (Avista Pharma, Inc., RTP, NC), 1-7days post hatch, held in an environmental chamber at 24° C., 85% humidity.
(§1) For flea ingestion tests, serial dilutions of the compound stock were performed using DMSO to achieve the desired range for EC50 and EC90 determination. An aliquot of each compound dilution was added to organic bovine blood with a final DMSO concentration of 0.5% and placed in an artificial feeding container.
Compounds tested were C1 racemate, the C1 (R) enantiomer, and the C1 (S) enantiomer. For Trial 3, the C1 (R) enantiomer and the C1 (S) enantiomer were further chiral purified to achieve >99% purity.
(§2) For both contact and ingestion assays, ten newly emerged unfed adult fleas, 0-7 days old Ctenocephalides felis, from a laboratory colony, were aspirated into each vial or cage. The test vials for contact assays were held in an environmental chamber at 24° C., 80% humidity with light/dark cycles (12 hours each). The cages for flea ingestion assays were held in a temperature-controlled artificial feeding apparatus to allow continual access to organic bovine blood containing the desired concentration of compound. Fresh aliquots of compound-spiked bovine blood were provided daily for the duration of the study.
Fleas were evaluated for percent mortality at various time points between 2 hours and 48 hours post infestation. Fleas showing normal movement and/or jumping ability were considered viable and those showing no movement after tapping the vials were scored as dead.

Aedes aegypti = assay: In vitro ingestion activity against adult mosquitoes (artificial feeding, bovine blood); details: read-out: Mortality % R1 + R2
Procedure: Aedes aegypti (Louisiana Biologicals Inc., New Orleans, La.) eggs were allowed to hatch, close, and age between 3-5 days in an environmental chamber at 26° C., 80% humidity with light/dark cycles.
as §1, with “For mosquito” for “For flea”, “in a temperature-controlled” for “in an”
Compounds tested were: the C1 racemate, C1 (R) enantiomer, and the C1 (S) enantiomer. For Trial 3, the C1 (R) enantiomer and the C1 (S) enantiomer were further chiral purified to achieve >99% purity.
as §2, with “five female Aedes aegypti adults” for “ten newly emerged unfed adult fleas, 0-7 days old Ctenocephalides felis, from a laboratory colony,”, “added to” for “aspirated into”, “mosquito” for “flea”
Assessment of mortality/knockdown was performed at various time points between 30 minutes and 24 hours post infestation. Mosquitoes showing no movement or mosquitoes that were knocked down were noted as dead. Results from trial 1 and trial 2 contact assays are shown in Tables 12 and 13, respectively and the results from trial 3 mosquito ingestion assay is shown in table 14.
For the mosquito contact and ingestion assays, each replicate contained 5 mosquitoes. For ease of calculation, the two replicates were added to equal a total of 10 mosquitoes.

In the case of O=C(CC(F)(F)F)N1CC2(C1)OCc1cc(C3=NSC(c4cc(Cl)c(F)c(Cl)c4)(C(F)(F)F)C3)ccc12 (racemic) [C1 racemate, 1-[6-[5-(3,5-dichloro-4-fluoro-phenyl)-5-(trifluoromethyl)-4H-isothiazol-3-yl]spiro[1H-isobenzofuran-3,3′-azetidine]-1′-yl]-3,3,3-trifluoro-propan-1-one], the mortality at 0.003 ppm (Ctenocephalides felis; 6 h, Rep1) is reported as 0%, the mortality at 0.003 ppm (Ctenocephalides felis; 6 h, Rep2) is reported as 0% and the mortality at 0.012 ppm (Ctenocephalides felis; 6 h, Rep1) is reported as 0%. For the same compound, the mortality at 0.012 ppm (Ctenocephalides felis; 6 h, Rep2) was 0%, the mortality at 0.049 ppm (Ctenocephalides felis; 6 h, Rep1) was 0% and the mortality at 0.049 ppm (Ctenocephalides felis; 6 h, Rep2) was 0%. It also gave a mortality at 0.2 ppm (Ctenocephalides felis; 6 h, Rep1) of 10%, a mortality at 0.2 ppm (Ctenocephalides felis; 6 h, Rep2) of 10% and a mortality at 0.78 ppm (Ctenocephalides felis; 6 h, Rep1) of 70%. For the same compound, the mortality at 0.78 ppm (Ctenocephalides felis; 6 h, Rep2) was 90%, the mortality at 3.125 ppm (Ctenocephalides felis; 6 h, Rep1) was 90% and the mortality at 3.125 ppm (Ctenocephalides felis; 6 h, Rep2) was 70%. For the same compound, the mortality at 12.5 ppm (Ctenocephalides felis; 6 h, Rep1) was 90%, the mortality at 12.5 ppm (Ctenocephalides felis; 6 h, Rep2) was 100% and the mortality at 50 ppm (Ctenocephalides felis; 6 h, Rep1) was 90%. For the same compound, the mortality at 50 ppm (Ctenocephalides felis; 6 h, Rep2) was 70%, the mortality at 0.003 ppm (Ctenocephalides felis; 24 h, Rep1) was 0% and the mortality at 0.003 ppm (Ctenocephalides felis; 24 h, Rep2) was 0%. The mortality at 0.012 ppm (Ctenocephalides felis; 24 h, Rep1) was 0%, the mortality at 0.012 ppm (Ctenocephalides felis; 24 h, Rep2) was 0% and the mortality at 0.049 ppm (Ctenocephalides felis; 24 h, Rep1) was 0%. It also gave a mortality at 0.049 ppm (Ctenocephalides felis; 24 h, Rep2) of 10%, a mortality at 0.2 ppm (Ctenocephalides felis; 24 h, Rep1) of 30% and a mortality at 0.2 ppm (Ctenocephalides felis; 24 h, Rep2) of 80%. For the same compound, the mortality at 0.78 ppm (Ctenocephalides felis; 24 h, Rep1) was 90%, the mortality at 0.78 ppm (Ctenocephalides felis; 24 h, Rep2) was 90% and the mortality at 3.125 ppm (Ctenocephalides felis; 24 h, Rep1) was 90%. The mortality at 3.125 ppm (Ctenocephalides felis; 24 h, Rep2) was 90%, the mortality at 12.5 ppm (Ctenocephalides felis; 24 h, Rep1) was 90% and the mortality at 12.5 ppm (Ctenocephalides felis; 24 h, Rep2) was 100%. It also gave a mortality at 50 ppm (Ctenocephalides felis; 24 h, Rep1) of 90%, a mortality at 50 ppm (Ctenocephalides felis; 24 h, Rep2) of 80% and a mortality at 0.003 ppm (Ctenocephalides felis; 48 h, Rep1) of 0%. It also gave a mortality at 0.003 ppm (Ctenocephalides felis; 48 h, Rep2) of 0%, a mortality at 0.012 ppm (Ctenocephalides felis; 48 h, Rep1) of 0% and a mortality at 0.012 ppm (Ctenocephalides felis; 48 h, Rep2) of 0%. It also gave a mortality at 0.049 ppm (Ctenocephalides felis; 48 h, Rep1) of 10%, a mortality at 0.049 ppm (Ctenocephalides felis; 48 h, Rep2) of 10% and a mortality at 0.2 ppm (Ctenocephalides felis; 48 h, Rep1) of 80%. For the same compound, the mortality at 0.2 ppm (Ctenocephalides felis; 48 h, Rep2) was 80%, the mortality at 0.78 ppm (Ctenocephalides felis; 48 h, Rep1) was 90% and the mortality at 0.78 ppm (Ctenocephalides felis; 48 h, Rep2) was 100%. The mortality at 3.125 ppm (Ctenocephalides felis; 48 h, Rep1) was 90%, the mortality at 3.125 ppm (Ctenocephalides felis; 48 h, Rep2) was 100% and the mortality at 12.5 ppm (Ctenocephalides felis; 48 h, Rep1) was 90%. The mortality at 12.5 ppm (Ctenocephalides felis; 48 h, Rep2) was 100%, the mortality at 50 ppm (Ctenocephalides felis; 48 h, Rep1) was 90% and the mortality at 50 ppm (Ctenocephalides felis; 48 h, Rep2) was 90%. The mortality at 0.049 ppm (Aedes aegypti; 24 h) was 71.4%, the mortality at 0.2 ppm (Aedes aegypti; 24 h) was 100% and the mortality at 0.78 ppm (Aedes aegypti; 24 h) was 100%. For the same compound, the mortality at 3.125 ppm (Aedes aegypti; 24 h) was 100%, the mortality at 12.5 ppm (Aedes aegypti; 24 h) was 100% and the mortality at 50 ppm (Aedes aegypti; 24 h) was 100%. For the same compound, the mortality at 0.049 ppm (Aedes aegypti) was 0%, the mortality at 0.2 ppm (Aedes aegypti) was 0% and the mortality at 0.78 ppm (Aedes aegypti) was 50%. It also gave a mortality at 3.125 ppm (Aedes aegypti) of 100%, a mortality at 12.5 ppm (Aedes aegypti) of 100% and a mortality at 50 ppm (Aedes aegypti) of 100%.
